In patent US12637414B2, “Arylamides and methods of use thereof” (Genzyme Corporation, priority 2019, dated 2026):

Molecular target: T1, human Cystic Fibrosis Transmembrane Conductance Regulator (CFTR) harboring the ΔF508 mutation (Homo sapiens, UniProt P13569, DEL508-508)
T1 construct: expressed in transfected cells; host or cells: H441 carcinoma line (G418 selection)
Experiment: H441 cell Emax and EC50: HRP-tagged ΔF508-CFTR cell surface luminescence assay
Format: cell-based
Conditions: H441 cells expressing ΔF508-CFTR-HRP, 27° C., two nights; for Emax: NCI-H441, % of maximum VX809 signal; for EC50: 15-point dose-response, top 24.5 μM
Description: Two cell lines were used, the H441 carcinoma line and the CFHBE41o-(41o-) human bronchial epithelial line. Both cell lines expressed human Cystic Fibrosis Transmembrane Conductance Regulator (CFTR) harboring the ΔF508 mutation and with an in-frame fusion in CFTR extracellular loop 4 of Horse Radish Peroxidase (HRP) under control of the CMV promoter. In the presence of the HRP tag, ΔF508-CFTR transported to the cell surface was detectable upon addition of an HRP substrate (Luminata Forte). Both cell types were cultivated at 37° C. with CO2.
For both cell types, the medium was changed every other day unless the culture was at low % confluence. Cells were used for the assays at ˜75% confluence.
To a polypropylene (PP) 384-well plate, 15 μls DMSO was added to all wells in columns 1-22 and 24 (low Control). 15 μls of 260 μM VX809 (Lumacaftor), Selleckchem S1565, was added to column 23 wells (high Control). 15 μls of 10 mM test compound or VX809 (control) were added to wells of row A. Serial dilutions of Row A compound were performed 2×15 μls in rows A through O (15-point).
A PP, 384-well plate containing the appropriate cell culture medium was prepared for each assay plate with 100 μls per well. For the doxycycline-induced 41o-cells, doxycycline for both the assay plate and the medium dilution plate was added at 0.0005 mg/ml to the medium.
Both cell lines were plated for the assay at 30 uls per 384-well at 3.4×10^e5 cells per ml (˜10K cells/well). H441 cells were plated on opaque, white, Corning plate 3704. 41o-cells were plated on collagen-coated opaque, white, Corning plate 356665. For 41o-cells, doxycycline was added to the medium.
Using FX (Beckman) protocol, 10 uls diluted compound or medium was added per well to the Assay Plate as: 2 μls DMSO Dilution plate well is diluted in 100 uls of the Medium Dilution Plate well, mixed, and 10 uls is transferred to the Assay Plate.
The final assay dilution series is 24.5, 12.3, 6.1, 3.1, 1.5, 0.8, 0.4, 0.2, 0.1, 0.05, 0.02, 0.01, 0.006, 0.003, 0.001 and 0 μM. The 41o-assay plates were incubated at 37° C. w/CO2, the H441 assay plates were incubated at 27° C. w/CO2, each overnight for two nights.
After being brought to room temperature, the assay plate liquid was removed. 30 μls of Luminata Forte (Millipore ELLUF0100) was added per well and incubated at room temperature for 10 min. The plates were then read on a Topcount, protocol LumiMatti (CPS, luminescence). The data was analyzed for % of maximum, maximum VX809 signal, and EC50 using Pearl and SPEED tools.

T1 sequence (P13569 with tags, fused parts or gaps DEL508-508): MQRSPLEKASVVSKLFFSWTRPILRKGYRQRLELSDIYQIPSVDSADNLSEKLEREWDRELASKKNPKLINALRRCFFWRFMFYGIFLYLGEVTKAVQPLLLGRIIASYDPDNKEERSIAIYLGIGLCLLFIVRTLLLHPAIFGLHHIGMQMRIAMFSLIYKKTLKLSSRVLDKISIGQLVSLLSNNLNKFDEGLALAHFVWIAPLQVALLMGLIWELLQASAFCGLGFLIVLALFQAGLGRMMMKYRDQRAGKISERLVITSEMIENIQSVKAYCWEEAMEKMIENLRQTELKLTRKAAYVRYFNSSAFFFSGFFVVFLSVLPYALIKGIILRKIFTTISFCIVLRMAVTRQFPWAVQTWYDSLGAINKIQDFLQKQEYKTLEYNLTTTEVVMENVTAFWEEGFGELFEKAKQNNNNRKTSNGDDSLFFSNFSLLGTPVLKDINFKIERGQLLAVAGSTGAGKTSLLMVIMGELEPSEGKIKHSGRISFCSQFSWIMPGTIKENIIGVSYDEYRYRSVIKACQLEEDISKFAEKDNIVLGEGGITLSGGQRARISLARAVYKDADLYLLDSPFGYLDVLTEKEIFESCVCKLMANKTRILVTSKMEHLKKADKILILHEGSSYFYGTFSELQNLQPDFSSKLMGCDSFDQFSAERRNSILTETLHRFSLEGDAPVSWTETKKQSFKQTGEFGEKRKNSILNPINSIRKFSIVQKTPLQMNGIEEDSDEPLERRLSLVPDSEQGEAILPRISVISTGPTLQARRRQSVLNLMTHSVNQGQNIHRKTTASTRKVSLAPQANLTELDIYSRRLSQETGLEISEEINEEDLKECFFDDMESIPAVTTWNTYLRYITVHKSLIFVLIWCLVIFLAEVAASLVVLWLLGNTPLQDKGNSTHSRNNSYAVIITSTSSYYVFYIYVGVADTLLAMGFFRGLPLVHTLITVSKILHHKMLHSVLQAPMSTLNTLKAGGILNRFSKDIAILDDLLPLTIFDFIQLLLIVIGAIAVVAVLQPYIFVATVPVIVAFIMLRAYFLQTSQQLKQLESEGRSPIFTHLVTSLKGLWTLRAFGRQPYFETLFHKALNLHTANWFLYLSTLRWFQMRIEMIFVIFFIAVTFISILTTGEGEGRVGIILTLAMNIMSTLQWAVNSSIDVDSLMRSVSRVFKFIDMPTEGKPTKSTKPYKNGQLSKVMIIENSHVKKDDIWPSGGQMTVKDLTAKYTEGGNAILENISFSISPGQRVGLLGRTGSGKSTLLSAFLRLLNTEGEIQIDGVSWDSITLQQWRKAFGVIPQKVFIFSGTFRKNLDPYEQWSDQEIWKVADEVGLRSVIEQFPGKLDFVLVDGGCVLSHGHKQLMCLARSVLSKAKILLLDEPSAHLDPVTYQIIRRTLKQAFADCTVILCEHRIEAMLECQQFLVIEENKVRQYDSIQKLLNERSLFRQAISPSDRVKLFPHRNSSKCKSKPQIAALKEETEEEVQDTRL

With `O=C(N[C@H](C(=O)O)C12CC3CC(CC(O)(C3)C1)C2)c1ccc2cc(F)ccc2c1OCc1ccc(OC(F)(F)F)cc1` [compound 46] the Emax was 3.8%.
For `C[C@@H](OC12CC3CC(C1)CC([C@H](NC(=O)c1ccc4cc(F)ccc4c1OCc1ccc(C(F)(F)F)cc1)C(=O)O)(C3)C2)C(=O)O` [compound 36], the Emax was 0.9%.
Work on `CN(Cc1ccc(C(F)(F)F)cc1)c1c(CC(=O)N[C@H](C(=O)O)C23CC4CC(CC(C4)C2)C3)ccc2ccccc12` [compound 134, (2S)-2-(1-adamantyl)-2-[[2-[1-[methyl-[[4-(trifluoromethyl)phenyl]methyl]amino]-2-naphthyl]acetyl]amino]acetic acid] yielded an Emax of -17.5%.
Work on `COc1c(F)c(COc2c(C(=O)N[C@H](C(=O)O)C34CC5CC(CC(C5)C3)C4)ccc3ccccc23)c(F)c(F)c1C(F)(F)F` [compound 86] yielded an EC50 of 0.526 µM and an Emax of 24%.
`O=C(N[C@H](C(=O)O)C12CC3CC(CC(C3)C1)C2)c1sc2ccccc2c1OCc1ccc(OC(F)(F)F)cc1` [compound 93] showed an EC50 of 0.908 µM and an Emax of 108%.
`O=C(NC(C(=O)O)C12CC3CC(CC(OCC(Cl)Cl)(C3)C1)C2)c1ccc2cc(F)ccc2c1OCc1ccc(C(F)(F)F)cc1` (stereo not shown) [compound 91] showed an EC50 of 0.441 µM and an Emax of 110%.
In the case of `O=C(N[C@H](C(=O)O)C12CC3CC(CC(C3)C1)C2)c1ccc2ccccc2c1OCc1nc(C(F)(F)F)cs1` [compound 100, (2S)-2-(1-adamantyl)-2-[[1-[[4-(trifluoromethyl)thiazol-2-yl]methoxy]naphthalene-2-carbonyl]amino]acetic acid], the EC50 is reported as 2.88 µM and the Emax is reported as 55.8%.
With `O=C(N[C@H](C(=O)O)C12CC3CC(CC(C3)C1)C2)c1ccc2ccccc2c1OC[C@H]1CC[C@@H](C(F)(F)F)CC1` [compound 70] the EC50 was 1.86 µM and the Emax was 97.4%.
Molecule `O=C(O)[C@@H](N1CN(Cc2ccc(C(F)(F)F)cc2)c2ccccc2C1=O)C12CC3CC(CC(C3)C1)C2` [compound 135, (2S)-2-(1-adamantyl)-2-[4-oxo-1-[[4-(trifluoromethyl)phenyl]methyl]-2H-quinazolin-3-yl]acetic acid] has an Emax of -5.4%.
Molecule `Cc1ccc2ccc(C(=O)N[C@H](C(=O)O)C34CC5CC(CC(C5)C3)C4)c(OCc3ccc(OC(F)(F)F)cc3)c2c1` [compound 34] has an EC50 of 0.489 µM and an Emax of 264%.
In the case of `CC12CC3(C)CC(C)(C1)CC([C@H](NC(=O)c1ccc4ccccc4c1OCc1ccc(C(F)(F)F)cc1)C(=O)O)(C2)C3` [compound 59], the EC50 is reported as 0.291 µM and the Emax is reported as 257%.
For `O=C(O)[C@@H](N1CN(Cc2ccc(SC(F)(F)F)cc2)c2c(ccc3ccccc23)C1=O)C12CC3CC(CC(O)(C3)C1)C2` [compound 121, (2S)-2-(3-hydroxy-1-adamantyl)-2-[4-oxo-1-[[4-(trifluoromethylsulfanyl)phenyl]methyl]-2H-benzo[h]quinazolin-3-yl]acetic acid], the EC50 was 1.63 µM and the Emax was 56.5%.
`O=C(N[C@H](C(=O)O)C12CC3CC(CC(C3)C1)C2)c1ccc2ccccc2c1OCc1ccc(OC(F)F)cc1` [compound 78] showed an EC50 of no less than 24.5 µM and an Emax of 7.8%.
For `O=C(NC(C(=O)O)C12CC3CC(CC(O)(C3)C1)C2)c1ccc2ccccc2c1OCc1ccc(C(F)(F)F)cc1` (stereo not shown) [compound 79], the EC50 was 1.03 µM and the Emax was 137%.
`O=C(N[C@H](C(=O)O)C12CC3CC(CC(OCCO)(C3)C1)C2)c1ccc2ccccc2c1OCc1ccc(C(F)(F)F)cc1` [compound 20] showed an EC50 of 0.78 µM and an Emax of 144%.
`O=C(N[C@H](C(=O)O)C12CC3CC(CC(C3)C1)C2)c1ccc2ccccc2c1OCc1ccc(S(=O)(=O)C(F)(F)F)cc1` [compound 61] was tested, and the EC50 was 0.446 µM and the Emax was 100%.
`O=C(N[C@H](C(=O)O)C12CC3CC(CC(C3)C1)C2)c1ccc2cccnc2c1OCc1ccc(OC(F)(F)F)cc1` [compound 84] gave an EC50 of 0.66 µM and an Emax of 149%.
Molecule `O=C(N[C@H](C(=O)O)C12CC3CC(CC(C3)C1)C2)c1ccc2cccnc2c1OCc1ccc(C(F)(F)F)cc1` [compound 41] has an EC50 of 0.468 µM and an Emax of 173%.
`CC12CC3(C)CC(C)(C1)CC([C@H](NC(=O)c1ccc4cccnc4c1OCc1ccc(C(F)(F)F)cc1)C(=O)O)(C2)C3` [compound 62] showed an EC50 of 0.245 µM and an Emax of 217%.
`CC12CC3(C)CC(C)(C1)CC(C(NC(=O)c1ccc4ccccc4c1OCC1CCCCC1)C(=O)O)(C2)C3` (stereo not shown) [compound 75] showed an EC50 of 0.599 µM and an Emax of 271%.
With `O=C(N[C@H](C(=O)O)C12CC3CC(CC(O)(C3)C1)C2)c1ccc2cccnc2c1OCc1ccc(C(F)(F)F)cc1` [compound 22] the EC50 was 3.66 µM and the Emax was 175%.
`O=C(N[C@H](C(=O)O)C12CC3CC(CC(C3)C1)C2)c1ccc2sccc2c1OCc1ccc(S(F)(F)(F)(F)F)cc1` [compound 114] was tested, and the EC50 was 0.465 µM and the Emax was 119%.
`CS(=O)(=O)c1ccc(COc2c(C(=O)N[C@H](C(=O)O)C34CC5CC(CC(O)(C5)C3)C4)ccc3ccccc23)cc1` [compound 10] showed an EC50 of 16.9 µM and an Emax of 29.2%.
`O=C(N[C@H](C(=O)O)C12CC3CC(CC(C3)C1)C2)c1ccc2sccc2c1OCC1CCC(F)(F)CC1` [compound 106, (2S)-2-(1-adamantyl)-2-[[4-[(4,4-difluorocyclohexyl)methoxy]benzothiophene-5-carbonyl]amino]acetic acid] was tested, and the EC50 was 3.62 µM and the Emax was 156%.
In the case of `O=C(N[C@H](C(=O)O)C12CC3CC(CC(C3)C1)C2)c1ccc2ccccc2c1NCc1ccc(SC(F)(F)F)cc1` [compound 123, (2S)-2-(1-adamantyl)-2-[[1-[[4-(trifluoromethylsulfanyl)phenyl]methylamino]naphthalene-2-carbonyl]amino]acetic acid], the EC50 is reported as 0.278 µM and the Emax is reported as 51.9%.
Molecule `O=C(N[C@H](C(=O)O)C12CC3CC(CC(C3)C1)C2)c1ccc2occc2c1OCc1nc2ccccc2s1` [compound 122, (2S)-2-(1-adamantyl)-2-[[4-(1,3-benzothiazol-2-ylmethoxy)benzofuran-5-carbonyl]amino]acetic acid] has an EC50 of 1.51 µM and an Emax of 171%.
`O=C(N[C@H](C(=O)O)C12CC3CC(CC(C3)C1)C2)c1ccc2ccccc2c1OCC#CC1CC1` [compound 101, (2S)-2-(1-adamantyl)-2-[[1-(3-cyclopropylprop-2-ynoxy)naphthalene-2-carbonyl]amino]acetic acid] was tested, and the EC50 was 2.7 µM and the Emax was 145%.
`O=C(N[C@H](C(=O)O)C12CC3CC(CC(C3)C1)C2)c1ccn2cccc2c1OCc1ccc(C(F)(F)F)cc1` [compound 117, (2S)-2-(1-adamantyl)-2-[[8-[[4-(trifluoromethyl)phenyl]methoxy]indolizine-7-carbonyl]amino]acetic acid] gave an EC50 of 0.172 µM and an Emax of 160%.
In the case of `C=COc1ccc2c(OCc3ccc(C(F)(F)F)cc3)c(C(=O)N[C@H](C(=O)O)C34CC5CC(CC(C5)C3)C4)ccc2c1` [compound 63], the EC50 is reported as 0.228 µM and the Emax is reported as 54.9%.
`O=C(N[C@H](C(=O)O)C12CC3CC(CC(C3)C1)C2)c1ccc2occc2c1OCc1ccc(OC(F)(F)F)cc1` [compound 124, (2S)-2-(1-adamantyl)-2-[[4-[[4-(trifluoromethoxy)phenyl]methoxy]benzofuran-5-carbonyl]amino]acetic acid] showed an EC50 of 0.471 µM and an Emax of 116%.
`O=C(N[C@H](C(=O)O)C12CC3CC(CC(O)(C3)C1)C2)c1ccc2cccnc2c1OCC1CCC(F)(F)CC1` [compound 60] gave an EC50 of 11.6 µM and an Emax of 73.1%.
